According to BindingDB's records for doi:10.1016/s0014-5793(97)00196-8 (Merck Research Laboratories, 1997):
Non-standard residues stand in square brackets, D forms with d. Residues, ends and D or L forms follow the SMILES beside them.

What follows are compounds tested against T1, Galanin receptor type 2 (Rattus norvegicus, UniProt O08726).
T1 sequence (O08726 whole entry): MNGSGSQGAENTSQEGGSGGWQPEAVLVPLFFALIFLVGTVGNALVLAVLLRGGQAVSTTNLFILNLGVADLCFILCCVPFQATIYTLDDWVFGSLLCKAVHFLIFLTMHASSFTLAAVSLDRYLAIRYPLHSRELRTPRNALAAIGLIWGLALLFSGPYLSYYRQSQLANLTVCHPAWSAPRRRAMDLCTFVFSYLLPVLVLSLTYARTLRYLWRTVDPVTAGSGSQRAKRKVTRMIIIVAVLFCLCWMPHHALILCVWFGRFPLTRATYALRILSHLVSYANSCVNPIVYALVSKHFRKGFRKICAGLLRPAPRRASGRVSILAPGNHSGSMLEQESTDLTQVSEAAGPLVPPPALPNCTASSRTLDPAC

Point of comparison: H-GWTLNSAGYLLGPPPALALA-NH2 [M40], Ki 0.0019 µM. Against it:
- CC[C@H](C)[C@H](NC(=O)[C@H](C)NC(=O)[C@H](Cc1c[nH]cn1)NC(=O)[C@@H]1CCCN1C(=O)CNC(=O)[C@H](CC(C)C)NC(=O)[C@H](CC(C)C)NC(=O)[C@H](Cc1ccc(O)cc1)NC(=O)CNC(=O)[C@H](C)NC(=O)[C@H](CO)NC(=O)[C@H](CC(N)=O)NC(=O)[C@H](CC(C)C)NC(=O)[C@@H](N)[C@@H](C)O)C(=O)N[C@@H](CC(=O)O)C(=O)N[C@@H](CC(N)=O)C(=O)N[C@@H](Cc1c[nH]cn1)C(=O)N[C@@H](CCCNC(=N)N)C(=O)N[C@@H](CO)C(=O)N[C@@H](Cc1ccccc1)C(=O)N[C@@H](CO)C(=O)N[C@@H](CC(=O)O)C(=O)N[C@@H](CCCCN)C(=O)N[C@@H](Cc1c[nH]cn1)C(=O)NCC(=O)N[C@@H](CC(C)C)C(=O)N[C@H](C(N)=O)[C@@H](C)O [Galanin (3-29), rat] — 530-fold higher, 1 µM
- CC(C)C[C@H](NC(=O)[C@H](CC(C)C)NC(=O)[C@@H](Cc1c[nH]c2ccccc12)NC(=O)[C@H](Cc1ccccc1)NC(=O)[C@@H](Cc1c[nH]c2ccccc12)NC(=O)[C@H](CCC(N)=O)NC(=O)[C@H](CCC(N)=O)NC(=O)[C@@H]1CCCN1C(=O)[C@H](CCCCN)NC(=O)[C@@H]1CCCN1C(=O)[C@@H](CCCNC(=N)N)NC(=O)[C@@H]1CCCN1C(=O)CNC(=O)[C@H](CC(C)C)NC(=O)[C@H](CC(C)C)NC(=O)[C@H](Cc1ccc(O)cc1)NC(=O)CNC(=O)[C@H](C)NC(=O)[C@H](CO)NC(=O)[C@H](CC(N)=O)NC(=O)[C@H](CC(C)C)NC(=O)[C@@H](NC(=O)[C@H](Cc1c[nH]c2ccccc12)NC(=O)CN)[C@@H](C)O)C(N)=O [Gal(1-13)-Std I] (H-GWTLNSAGYLLGP[dR]PKPQQ[dW]F[dW]LL-NH2) — 12-fold higher, 0.023 µM
- CC[C@H](C)[C@H](NC(=O)[C@H](C)NC(=O)[C@H](Cc1c[nH]cn1)NC(=O)[C@@H]1CCCN1C(=O)CNC(=O)[C@H](CC(C)C)NC(=O)[C@H](CC(C)C)NC(=O)[C@H](Cc1ccc(O)cc1)NC(=O)CNC(=O)[C@H](C)NC(=O)[C@H](CO)NC(=O)[C@H](CC(N)=O)NC(=O)[C@H](CC(C)C)NC(=O)[C@@H](NC(=O)[C@@H](N)Cc1c[nH]c2ccccc12)[C@@H](C)O)C(=O)N[C@@H](CC(=O)O)C(=O)N[C@@H](CC(N)=O)C(=O)N[C@@H](Cc1c[nH]cn1)C(=O)N[C@@H](CCCNC(=N)N)C(=O)N[C@@H](CO)C(=O)N[C@@H](Cc1ccccc1)C(=O)N[C@@H](CO)C(=O)N[C@@H](CC(=O)O)C(=O)N[C@@H](CCCCN)C(=O)N[C@@H](Cc1c[nH]cn1)C(=O)NCC(=O)N[C@@H](CC(C)C)C(=O)N[C@H](C(N)=O)[C@@H](C)O [Galanin Porcine 2-29] — 1.5-fold higher, 0.0029 µM
